In article PMC8313942, “Lipase from new isolate Bacillus cereus ATA179: optimization of production conditions, partial purification, characterization and its potential in the detergent industry” (Turkish Journal of Biology, 2021):

System: T1, lipase from Bacillus cereus ATA179
T1 construct: gene extracellular lipase; 47 kDa by SDS-PAGE
Assay: lipase activity at varied tributyrin, Lineweaver-Burk plot
Type: biochemical
Conditions: tributyrin 0.1-1.2 mM; partially purified enzyme; pH and temperature of the kinetic assay not given

`CCCC(=O)OCC(COC(=O)CCC)OC(=O)CCC` [tributyrin] showed a Km of 110 µM.
